In brackets after ≈: the same amount, converted by molar mass.
Columns and labels:
[1] = Selectivity index, ratio of LC50 for human U937 cells to EC50 for intracellular amastigote stage of Leishmania panamensis MHOM/CO/87/UA140epir GFP infected in human U937 cells; format: toxicity, cell-based, U-937; settings: for selectivity ratio: read-out: Selectivity Index
Leishmania panamensis [2] = experiment: Leishmanicidal activity against intracellular amastigote stage of Leishmania panamensis MHOM/CO/87/UA140epir GFP infected in human U937 cells assessed as parasite viability after 72 hr by flow cytometric analysis; format: functional, organism-based, U-937
[3] = (§1) Cytotoxicity against Homo sapiens (human) U937 cells assessed as cell viability after 72 hr by MTT assay; format: cell-based, U-937; settings: U937 cells, read-out: LC50
Leishmania panamensis [4] = experiment: Leishmanicidal activity against axenic amastigote stage of Leishmania panamensis MHOM/CO/87/UA140epir GFP assessed as parasite viability after 72 hr by MTT assay; format: functional, organism-based
[5] = Selectivity index, ratio of LC50 for human U937 cells to EC50 for axenic amastigote stage of Leishmania panamensis MHOM/CO/87/UA140epir GFP; format: toxicity, cell-based, U-937; settings: for selectivity ratio: U937 cells, axenic amastigotes of Leishmania panamensis, read-out: Selectivity Index
U-937 = experiment: as §1; format: cell-based; settings: u-937, 72 h
[6] = Leishmania panamensis, MHOM/CO/87/UA140epir GFP, U-937, 72 h, read-out: EC50
[7] = Leishmania panamensis, MHOM/CO/87/UA140epir GFP, 72 h, read-out: EC50

Row | Molecule | selectivity ratio [1] | EC50 (Leishmania panamensis [2]; [6]) [µg/mL] | CC50 at 72 h [3] [µg/mL] | EC50 (Leishmania panamensis [4]; [7]) [µg/mL] | selectivity ratio [5] | Selectivity Index ([1]; u-937) | EC50 (Leishmania panamensis [2]; u-937) [µg/mL] | LC50 (U-937) [µg/mL] | Selectivity Index ([5]; u-937) | EC50 (Leishmania panamensis [4]) [µg/mL]
1 | C=CCc1ccc(OCCCCCCCCCCCCOc2cccc3ccc(C)nc23)c(OC)c1 | 4.7 | 17.4 (≈ 35.5 µM) | 82.9 (≈ 169 µM) | > 100 |  |  |  |  |  | 
2 | Cc1ccc2cccc(OCCCOc3cc(Cl)ccc3Oc3ccc(Cl)cc3Cl)c2n1 | > 31.2 | 6.4 (≈ 13.1 µM) | > 200 | 23.6 (≈ 48.3 µM) | > 8.5 |  |  |  |  | 
3 | Cc1ccc2cccc(OCCCCOc3cc(Cl)ccc3Oc3ccc(Cl)cc3Cl)c2n1 | > 2 | > 100 | > 200 | 9.7 (≈ 19.3 µM) | > 20.6 |  |  |  |  | 
4 | Cc1ccc2cccc(OCCCCCOc3cc(Cl)ccc3Oc3ccc(Cl)cc3Cl)c2n1 | 24.6 | 2.4 (≈ 4.64 µM) | 59.2 (≈ 115 µM) | 4.1 (≈ 7.93 µM) | 14.4 |  |  |  |  | 
5 | Cc1ccc2cccc(OCCCCCCCCOc3cc(Cl)ccc3Oc3ccc(Cl)cc3Cl)c2n1 |  |  | > 200 | > 100 | > 2 |  |  |  |  | 
6 | Cc1ccc2cccc(OCCCCCCCCCOc3cc(Cl)ccc3Oc3ccc(Cl)cc3Cl)c2n1 |  |  | > 200 | > 100 | > 2 |  |  |  |  | 
7 | Cc1ccc2cccc(OCCCCCCCCCCCCOc3cc(Cl)ccc3Oc3ccc(Cl)cc3Cl)c2n1 |  |  | > 200 | > 100 | > 2 |  |  |  |  | 
8 | C=CCc1ccc(OCCCOc2cccc3ccc(C)nc23)c(OC)c1 |  |  | 6.8 (≈ 18.7 µM) | 6.9 (≈ 19 µM) | 1 |  |  |  |  | 
9 | C=CCc1ccc(OCCCCOc2cccc3ccc(C)nc23)c(OC)c1 | < 1 | > 31.3 | 31.3 (≈ 82.9 µM) | 38.9 (≈ 103 µM) | 0.5 |  |  |  |  | 
10 | C=CCc1ccc(OCCCCCOc2cccc3ccc(C)nc23)c(OC)c1 |  |  | 10.5 (≈ 26.8 µM) | 9.5 (≈ 24.3 µM) | 1 |  |  |  |  | 
11 | C=CCc1ccc(OCCCCCCCCOc2cccc3ccc(C)nc23)c(OC)c1 | 3.8 | 3.9 (≈ 8.99 µM) | 14.7 (≈ 33.9 µM) | 29.6 (≈ 68.3 µM) | 0.5 |  |  |  |  | 
12 | C=CCc1ccc(OCCCCCCCCCOc2cccc3ccc(C)nc23)c(OC)c1 |  |  | 14.1 (≈ 31.5 µM) | 21.1 (≈ 47.1 µM) | 0.7 |  |  |  |  | 
13 | Cc1ccc2cccc(O)c2n1 [8-HYDROXY QUINALDINE] |  |  | 7.6 (≈ 47.7 µM) | 2.6 (≈ 16.3 µM) | 2.9 |  |  |  |  | 
14 | C[C@@H]1[C@H](O)[C@@H](C)/C=C/C=C/C=C/C=C/C=C/C=C/C=C/[C@H](O[C@@H]2O[C@H](C)[C@@H](O)[C@H](N)[C@@H]2O)C[C@@H]2O[C@](O)(C[C@@H](O)C[C@@H](O)[C@H](O)CC[C@@H](O)C[C@@H](O)CC(=O)O[C@H]1C)C[C@H](O)[C@H]2C(=O)O [AMPHOTERICIN B] | 970 | 0.04 (≈ 0.0433 µM) | 38.8 (≈ 42 µM) | 0.05 (≈ 0.0541 µM) | 776 |  |  |  |  | 
15 | C=CCc1ccc(O)c(OC)c1 [EUGENOL] |  |  | 14.2 (≈ 86.5 µM) | 21.4 (≈ 130 µM) | 0.7 |  |  |  |  | 
16 | Oc1cc(Cl)ccc1Oc1ccc(Cl)cc1Cl [TRICLOSAN] |  |  | 4.8 (≈ 16.6 µM) | 11.3 (≈ 39 µM) | 0.4 |  |  |  |  | 
17 | MEGLUMINE ANTIMONATE |  |  |  |  |  | > 147.05 | 6.8 | > 1000 | > 1 | > 1000

From ChEMBL document CHEMBL3046057, “Synthesis and leishmanicidal activity of quinolinetriclosan and quinolineeugenol hybrids” (Med Chem Res, 2012)
